This note sets out measurements from patent US9635859B2, “Pesticidal compositions and processes related thereto” (Dow AgroSciences LLC, priority 2012, dated 2017).

The subject of this assay is Beet Armyworm (Spodoptera exigua). The assay can be described thus: Bioassays on BAW, 128-well diet tray assay. It is filed as in vivo. The note with it: percent mortality, second instar larvae, 50 μg/cm^2 on artificial diet, five to seven days, 25° C.; Table 3. On the procedure:
Certain molecules disclosed in this document were tested against BAW and CEW and CL using procedures described in the following examples. In the reporting of the results, the “BAW & CEW & CL Rating Table” was used (See Table Section).
Bioassays on BAW (Spodoptera exigua)
Bioassays on BAW were conducted using a 128-well diet tray assay. one to five second instar BAW larvae were placed in each well (3 mL) of the diet tray that had been previously filled with 1 mL of artificial diet to which 50 μg/cm^2 of the test compound (dissolved in 50 μL of 90:10 acetone-water mixture) had been applied (to each of eight wells) and then allowed to dry. Trays were covered with a clear self-adhesive cover, and held at 25° C., 14:10 light-dark for five to seven days. Percent mortality was recorded for the larvae in each well; activity in the eight wells was then averaged. The results are indicated in the table entitled “Table 3: Assay Results” (See Table Section).

Consider `Cc1cc(/C=C/C(c2cc(Cl)c(F)c(Cl)c2)C(F)(F)F)ccc1C(=O)NCc1ccc(Cl)nc1` (centres unmarked) [AC38], for which the “BAW Rating” value is reported as “A (50-100)”.

Turning to `O=C(NC1CSC1)c1ccc(/C=C/C(c2cc(Cl)c(Cl)c(Cl)c2)C(F)(F)F)cc1Br` (centres unmarked) [AC32], the “BAW Rating” value was “A (50-100)”.

Consider `O=C(NCCc1ccc(Cl)nc1)c1ccc(/C=C/C(c2cc(Cl)c(Cl)c(Cl)c2)C(F)(F)F)cc1Br` (centres unmarked) [AC113], for which the “BAW Rating” value is given as “B (More than 0-Less than 50)”.

For the compound `O=C(NCc1ccc(/C=C/C(c2cc(Cl)c(F)c(Cl)c2)C(F)(F)F)cc1Cl)C1CC1` (centres unmarked) [CC15], the “BAW Rating” value was “A (50-100)”.

As to `O=C(NCc1ccc(/C=C/C(c2cc(Cl)c(Cl)c(Cl)c2)C(F)(F)F)cc1Br)C1CC1` (centres unmarked) [CC26], the “BAW Rating” value is on record as “A (50-100)”.

`O=C(CNC(=O)c1ccc(/C=C/C(c2cc(Cl)c(F)c(Cl)c2)C(F)(F)F)cc1[N+](=O)[O-])NCC(F)(F)F` (centres unmarked) [AC98]: the “BAW Rating” value is recorded as “A (50-100)”.

As for `Cc1cc(/C=C/C(c2cc(Cl)cc(Cl)c2)C(F)(F)F)ccc1C(=O)NCc1ncccn1` (centres unmarked) [AC18], the “BAW Rating” value is “A (50-100)”.

For the compound `O=C(NCc1ccc(/C=C/C(c2cc(Cl)cc(Cl)c2)C(F)(F)F)cc1)C1CC1` (centres unmarked) [CC2], the “BAW Rating” value was “A (50-100)”.

On to `O=C(CC(F)(F)F)NNc1ccc(/C=C/C(c2cc(Cl)c(Cl)c(Cl)c2)C(F)(F)F)cc1` (centres unmarked) [CC51], for which the “BAW Rating” value is reported as “A (50-100)”.

`CCC(=O)NCc1ccc(/C=C/C(c2cc(Cl)cc(Cl)c2)C(F)(F)F)cc1` (centres unmarked) [CC4]: the “BAW Rating” value is “A (50-100)”.

Take `N#Cc1cc(/C=C/C(c2cc(Cl)c(Cl)c(Cl)c2)C(F)(F)F)ccc1-n1cnc(NC(=O)C2CC2)n1` (centres unmarked) [DC43, (E)-N-(1-(2-Cyano-4-(4,4,4-trifluoro-3-(3,4,5-trichlorophenyl)but-1-en-1-yl)phenyl)-1H-1,2,4-triazol-3-yl)cyclopropanecarboxamide]: the “BAW Rating” value is “A (50-100)”.

For the compound `Cc1cc(/C=C/C(c2cc(Cl)cc(Cl)c2)C(F)(F)F)ccc1C(=O)Nc1ccc(Cl)nc1` (centres unmarked) [AC59], the “BAW Rating” value is given as “A (50-100)”.

For the compound `O=C(Cc1ccc(Cl)nc1)NCc1ccc(/C=C/C(c2cc(Cl)c(Cl)c(Cl)c2)C(F)(F)F)cc1Cl` (centres unmarked) [CC14], the “BAW Rating” value was “A (50-100)”.

For `Cc1cc(/C=C/C(c2cc(Cl)cc(Cl)c2)C(F)(F)F)ccc1C(=O)NCc1ccccc1` (centres unmarked) [AC11], the “BAW Rating” value is recorded as “A (50-100)”.

In the case of `FC(F)(F)C(/C=C/c1ccc(-n2cncn2)cc1)c1ccc(Cl)c(Cl)c1` (centres unmarked) [DC12], the “BAW Rating” value is “A (50-100)”.

`CN(C)C(=O)NCc1ccc(/C=C/C(c2cc(Cl)c(Cl)c(Cl)c2)C(F)(F)F)cc1Cl` (centres unmarked) [CC36, (E)-3-(2-Chloro-4-(4,4,4-trifluoro-3-(3,4,5-trichlorophenyl)but-1-en-1-yl)benzyl)-1,1-dimethylurea]: the “BAW Rating” value was “A (50-100)”.

As for `FC(F)(F)C(/C=C/c1ccc(CNC(=S)C2CC2)c(Cl)c1)c1cc(Cl)c(Cl)c(Cl)c1` (centres unmarked) [CC20], the “BAW Rating” value is given as “A (50-100)”.

For `Cc1cc(/C=C/C(c2cc(Cl)cc(Cl)c2)C(F)(F)F)ccc1C(=O)NCC(=O)NC1CSC1` (centres unmarked) [AC41], the “BAW Rating” value is recorded as “A (50-100)”.

`Cc1cc(/C=C/C(c2cc(Cl)c(F)c(Cl)c2)C(F)(F)F)ccc1C(=O)NCc1cc(Cl)ccn1` (centres unmarked) [AC77]: the “BAW Rating” value was “A (50-100)”.

As for `O=C(NCc1ccc(Cl)nc1)c1ccc(/C=C/C(c2cc(Cl)c(Cl)c(Cl)c2)C(F)(F)F)cc1C(F)(F)F` (centres unmarked) [AC36], the “BAW Rating” value is given as “A (50-100)”.

In the case of `Cc1cc(/C=C/C(c2cc(Cl)cc(Cl)c2)C(F)(F)F)ccc1C(=O)NNc1ccccc1F` (centres unmarked) [AC17], the “BAW Rating” value was “A (50-100)”.

Take `CCNC(=O)NCc1ccc(/C=C/C(c2cc(Cl)c(Cl)c(Cl)c2)C(F)(F)F)cc1C(F)(F)F` (centres unmarked) [CC32]: the “BAW Rating” value is listed as “A (50-100)”.

Turning to `O=C(CNC(=O)c1ccc(/C=C\C(c2cc(Cl)c(Cl)c(Cl)c2)C(F)(F)F)cc1Br)NCC(F)(F)F` (centres unmarked) [AC95, (Z)-2-Bromo-N-(2-oxo-2-((2,2,2-trifluoroethyl)amino)ethyl)-4-(4,4,4-trifluoro-3-(3,4,5-trichlorophenyl)but-1-en-1-yl)benzamide], the “BAW Rating” value is recorded as “A (50-100)”.

In the case of `CCNC(=O)NCc1ccc(/C=C/C(c2cc(Cl)cc(Cl)c2)C(F)(F)F)cc1Cl` (centres unmarked) [CC31, (E)-1-(2-Chloro-4-(3-(3,5-dichlorophenyl)-4,4,4-trifluorobut-1-en-1-yl)benzyl)-3-ethylurea], the “BAW Rating” value was “B (More than 0-Less than 50)”.

For the compound `Cc1cc(/C=C/C(c2cc(Cl)cc(Cl)c2)C(F)(F)F)ccc1C(=O)NCc1nccn1C` (centres unmarked) [AC50], the “BAW Rating” value is given as “A (50-100)”.

Regarding `FC(F)(F)c1cc(/C=C/C(c2cc(Cl)cc(Cl)c2)C(F)(F)F)ccc1-n1cncn1` (centres unmarked) [DC51], the “BAW Rating” value is recorded as “A (50-100)”.

With `Cc1cc(/C=C/C(c2cc(Cl)cc(Cl)c2)C(F)(F)F)ccc1C(=O)NN(C)c1ccccc1F` (centres unmarked) [AC45], the “BAW Rating” value is reported as “A (50-100)”.

Consider `O=C(NC1CCNCC1)c1ccc(/C=C/C(c2cc(Cl)c(Cl)c(Cl)c2)C(F)(F)F)cc1Br` (centres unmarked) [AC114, (E)-2-Bromo-N-(piperidin-4-yl)-4-(4,4,4-trifluoro-3-(3,4,5-trichlorophenyl)but-1-en-1-yl)benzamide], for which the “BAW Rating” value is “A (50-100)”.

For the compound `Cc1cc(/C=C/C(c2cc(Cl)cc(Cl)c2)C(F)(F)F)ccc1C(=O)NCC1CCCO1` (centres unmarked) [AC118], the “BAW Rating” value is on record as “A (50-100)”.

Turning to `O=C(CNC(=O)c1ccc(/C=C/C(c2cc(Cl)c(F)c(Cl)c2)C(F)(F)F)cc1Br)NCC(F)(F)F` (centres unmarked) [AC79, (E)-2-Bromo-4-(3-(3,5-dichloro-4-fluorophenyl)-4,4,4-trifluorobut-1-en-1-yl)-N-(2-oxo-2-((2,2,2-trifluoroethyl)amino)ethyl)benzamide], the “BAW Rating” value is “A (50-100)”.

For the compound `N#Cc1cc(/C=C/C(c2cc(Cl)cc(Cl)c2)C(F)(F)F)ccc1-n1cnc(N)n1` (centres unmarked) [DC38], the “BAW Rating” value is “A (50-100)”.

With `O=C(CC(F)(F)F)NCc1ccc(/C=C/C(c2ccc(Cl)c(Cl)c2)C(F)(F)F)cc1Cl` (centres unmarked) [CC18], the “BAW Rating” value is “A (50-100)”.

As to `Cc1cc(/C=C/C(c2cc(Cl)c(Cl)c(Cl)c2)C(F)(F)F)ccc1-n1cncn1` (centres unmarked) [DC63], the “BAW Rating” value is recorded as “A (50-100)”.

As to `O=C(CC(F)(F)F)NC1CCc2cc(/C=C/C(c3cc(Cl)c(F)c(Cl)c3)C(F)(F)F)ccc21` (centres unmarked) [BC8], the “BAW Rating” value is given as “A (50-100)”.

Turning to `CCc1cc(/C=C/C(c2cc(Cl)c(F)c(Cl)c2)C(F)(F)F)ccc1C(=O)NC1CS(=O)(=O)C1` (centres unmarked) [AC86], the “BAW Rating” value was “A (50-100)”.

For `CC(=O)N1CCC(NC(=O)c2ccc(/C=C/C(c3cc(Cl)c(Cl)c(Cl)c3)C(F)(F)F)cc2Br)CC1` (centres unmarked) [AC103, (E)-N-(1-Acetylpiperidin-4-yl)-2-bromo-4-(4,4,4-trifluoro-3-(3,4,5-trichlorophenyl)but-1-en-1-yl)benzamide], the “BAW Rating” value was “A (50-100)”.

In the case of `O=C(NC1C[S+]([O-])C1)c1ccc(/C=C/C(c2cc(Cl)c(F)c(Cl)c2)C(F)(F)F)cc1F` (centres unmarked) [AC87], the “BAW Rating” value is recorded as “A (50-100)”.

On to `O=C(CC(F)(F)F)NCc1ccc(/C=C/C(c2cc(Cl)c(Cl)c(Cl)c2)C(F)(F)F)cc1Br` (centres unmarked) [CC25], for which the “BAW Rating” value is on record as “A (50-100)”.

For `O=C(NOc1ccc(/C=C/C(c2cc(Cl)c(Cl)c(Cl)c2)C(F)(F)F)cc1)C1CC1` (centres unmarked) [CC52, (E)-N-(4-(4,4,4-Trifluoro-3-(3,4,5-trichlorophenyl)but-1-en-1-yl)phenoxy)cyclopropanecarboxamide], the “BAW Rating” value was “A (50-100)”.

Regarding `Cc1cc(/C=C/C(c2cc(Cl)cc(Cl)c2)C(F)(F)F)ccc1C(=O)NCc1ccccc1F` (centres unmarked) [AC9], the “BAW Rating” value is “A (50-100)”.

With `Cc1cc(/C=C/C(c2cc(Cl)cc(Cl)c2)C(F)(F)F)ccc1C(=O)NCc1ccoc1` (centres unmarked) [AC20], the “BAW Rating” value is listed as “A (50-100)”.

On to `O=C(CNC(=S)c1ccc(/C=C/C(c2cc(Cl)c(Cl)c(Cl)c2)C(F)(F)F)cc1Br)NCC(F)(F)F` (centres unmarked) [AC91, (E)-2-(2-Bromo-4-(4,4,4-trifluoro-3-(3,4,5-trichlorophenyl)but-1-en-1-yl)phenylthioamido)-N-(2,2,2-trifluoroethyl)acetamide], for which the “BAW Rating” value is “A (50-100)”.

`Cc1cc(/C=C/C(c2cc(Cl)cc(Cl)c2)C(F)(F)F)ccc1C(=O)NCc1cnccn1` (centres unmarked) [AC43]: the “BAW Rating” value was “A (50-100)”.

For the compound `Cc1cc(/C=C/C(c2cc(Cl)c(Cl)c(Cl)c2)C(F)(F)F)ccc1C(=O)NC(C)(C)c1ccccn1` (centres unmarked) [AC27], the “BAW Rating” value is recorded as “A (50-100)”.

`Cc1cc(/C=C/C(c2cc(Cl)c(Cl)c(Cl)c2)C(F)(F)F)ccc1C(=O)NCC(=O)NCC(F)(F)F` (centres unmarked) [AC78]: the “BAW Rating” value is on record as “A (50-100)”.

As for `O=C(Cn1ncc2cc(/C=C/C(c3cc(Cl)c(F)c(Cl)c3)C(F)(F)F)ccc2c1=O)NCC(F)(F)F` (centres unmarked) [BC14, (E)-2-(6-(3-(3,5-Dichloro-4-fluorophenyl)-4,4,4-trifluorobut-1-en-1-yl)-1-oxophthalazin-2(1H)-yl)-N-(2,2,2-trifluoroethyl)acetamide], the “BAW Rating” value is on record as “A (50-100)”.

On to `COC(/C=C/c1ccc(-n2cncn2)cc1)(c1cc(Cl)cc(Cl)c1)C(F)(F)F` (centres unmarked) [DC70, (E)-1-(4-(3-(3,5-Dichlorophenyl)-4,4,4-trifluoro-3-methoxybut-1-en-1-yl)phenyl)-1H-1,2,4-triazole], for which the “BAW Rating” value is recorded as “A (50-100)”.

For `COc1cc(/C=C/C(c2cc(Cl)c(F)c(Cl)c2)C(F)(F)F)ccc1C(=O)NC1CS(=O)(=O)C1` (centres unmarked) [AC85], the “BAW Rating” value is “A (50-100)”.

`O=C(NC1CCc2cc(/C=C/C(c3cc(Cl)c(Cl)c(Cl)c3)C(F)(F)F)ccc21)C1CC1` (centres unmarked) [BC6]: the “BAW Rating” value was “A (50-100)”.

In the case of `COc1c(Cl)cc(C(/C=C/c2ccc(-n3cncn3)c(C#N)c2)C(F)(F)F)cc1Cl` (centres unmarked) [DC34], the “BAW Rating” value is on record as “A (50-100)”.
